Molecular target: T1, Olfactory receptor (Rattus norvegicus, UniProt D3Z9H0)
T1 sequence (D3Z9H0 whole entry): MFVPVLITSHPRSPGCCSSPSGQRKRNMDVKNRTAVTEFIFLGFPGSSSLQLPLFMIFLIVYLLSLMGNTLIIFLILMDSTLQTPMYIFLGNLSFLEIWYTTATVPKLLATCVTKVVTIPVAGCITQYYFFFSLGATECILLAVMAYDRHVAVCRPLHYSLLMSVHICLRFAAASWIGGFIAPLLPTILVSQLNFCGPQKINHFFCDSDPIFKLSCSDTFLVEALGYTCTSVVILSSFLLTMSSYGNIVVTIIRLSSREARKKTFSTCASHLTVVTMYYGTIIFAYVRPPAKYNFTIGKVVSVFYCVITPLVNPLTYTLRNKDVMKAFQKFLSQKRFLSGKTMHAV
Test: Inhibition Assay
Source text: Inhibition assay of olfactory receptors 17 activation.

Row | IC50 [µM] | Compound
1 | 37 | O=CCC1CCCCC1 [Aldehydes, 5]
2 | 60 | O=CCCC1CCCC1 [Aldehydes, 4]
3 | 133 | CCCCCC=O [Aldehydes, C6]
4 | 57 | O=CC1CCCCCC1 [Aldehydes, 6]

Row | Compound | IC50 [µM]
5 | CCCCC=O [Aldehydes, C5] | 460

Reference: BindingDB's records for doi:10.1016/j.chembiol.2008.10.014 (Columbia University, 2008)
